Laboratory results: patent publication US10670605B2, “Cysteine reactive probes and uses thereof” (The Scripps Research Institute, priority 2015, dated 2020)
Where “and” joins values, the source holds several entries; their conditions need not be identical. Equal values may be shown once.

Tests used:
Experiment in all cases: Competitive isoTOP-ABPP, cell lysates;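 on isoTOP-ABPP reactivity profile ratio, O00170 C122: Heavy/light ratio DMSO over fragment-treated so higher means more cysteine engagement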
Assay type in all cases: binding
PDIA6 C55 (Q15084) = molecular target: T1, PDIA6 C55 (Q15084) (Homo sapiens, UniProt Q15084); conditions: for isoTOP-ABPP reactivity profile ratio, Q15084_C55 / isoTOP-ABPP reactivity ratio, Q15084_C55: 500 μm; for isoTOP-ABPP ratio Q15084_C55 / R value (DMSO/fragment): 500 μM
T1 sequence (Q15084 20-440): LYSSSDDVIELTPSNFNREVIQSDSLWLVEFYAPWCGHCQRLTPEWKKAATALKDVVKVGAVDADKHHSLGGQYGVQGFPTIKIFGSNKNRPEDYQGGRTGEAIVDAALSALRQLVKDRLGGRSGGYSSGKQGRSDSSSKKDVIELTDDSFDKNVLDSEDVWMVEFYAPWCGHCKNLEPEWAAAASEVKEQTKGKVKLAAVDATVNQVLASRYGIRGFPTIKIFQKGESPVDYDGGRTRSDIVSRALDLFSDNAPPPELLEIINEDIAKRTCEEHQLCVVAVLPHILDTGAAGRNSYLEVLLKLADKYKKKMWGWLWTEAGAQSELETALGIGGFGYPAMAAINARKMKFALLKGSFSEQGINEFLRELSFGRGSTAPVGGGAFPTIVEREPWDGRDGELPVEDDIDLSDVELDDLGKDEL

XPO1 C528 (O14980) = XPO1 C528 (O14980) (Homo sapiens, UniProt O14980); conditions: for isoTOP-ABPP ratio O14980_C528 / R value (DMSO/fragment): 500 μM; for isoTOP-ABPP ratio O14980_C528: 231
AIP C122 (O00170) = molecular target: T2, AIP C122 (O00170) (Homo sapiens, UniProt O00170); conditions: for R value (DMSO/fragment): 500 μM;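 on isoTOP-ABPP reactivity profile ratio, O00170 C122: Heavy/light ratio DMSO over fragment-treated so higher means more cysteine engagement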
T2 sequence (O00170 1-330): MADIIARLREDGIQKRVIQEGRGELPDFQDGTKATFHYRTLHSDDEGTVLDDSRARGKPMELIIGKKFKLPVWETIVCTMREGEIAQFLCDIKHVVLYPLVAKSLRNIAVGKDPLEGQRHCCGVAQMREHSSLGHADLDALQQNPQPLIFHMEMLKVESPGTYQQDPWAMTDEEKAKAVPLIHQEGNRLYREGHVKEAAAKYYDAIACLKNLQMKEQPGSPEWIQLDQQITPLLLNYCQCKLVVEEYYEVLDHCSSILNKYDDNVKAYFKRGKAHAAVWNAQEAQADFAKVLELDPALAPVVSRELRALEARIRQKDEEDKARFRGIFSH

IDH1 C269 (O75874) = IDH1 C269 (O75874) (Homo sapiens, UniProt O75874); conditions: for isoTOP-ABPP reactivity profile ratio, O75874_C269: in-vitro_ramos_231
IDH2 C308 (P48735) = molecular target: T3, IDH2 C308 (P48735) (Homo sapiens, UniProt P48735)
T3 sequence (P48735 40-452): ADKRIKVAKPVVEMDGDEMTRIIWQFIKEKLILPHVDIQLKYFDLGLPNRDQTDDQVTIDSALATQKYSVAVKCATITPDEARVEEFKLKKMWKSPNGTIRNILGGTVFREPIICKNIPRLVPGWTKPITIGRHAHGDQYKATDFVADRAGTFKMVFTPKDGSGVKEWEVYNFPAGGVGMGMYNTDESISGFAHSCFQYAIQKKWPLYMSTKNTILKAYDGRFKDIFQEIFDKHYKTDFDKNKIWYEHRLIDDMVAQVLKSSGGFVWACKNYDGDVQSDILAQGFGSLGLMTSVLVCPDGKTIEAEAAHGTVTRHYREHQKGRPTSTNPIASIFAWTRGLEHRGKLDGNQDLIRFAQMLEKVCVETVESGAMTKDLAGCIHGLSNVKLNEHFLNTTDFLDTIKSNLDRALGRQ

STAT3 C259 (P40763) = STAT3 C259 (P40763) (Homo sapiens, UniProt P40763); conditions: for isoTOP-ABPP reactivity ratio, P40763_C259: 500 μm, in-vitro_ramos
STAT3 C259 (P40763), sequence (P40763 whole entry): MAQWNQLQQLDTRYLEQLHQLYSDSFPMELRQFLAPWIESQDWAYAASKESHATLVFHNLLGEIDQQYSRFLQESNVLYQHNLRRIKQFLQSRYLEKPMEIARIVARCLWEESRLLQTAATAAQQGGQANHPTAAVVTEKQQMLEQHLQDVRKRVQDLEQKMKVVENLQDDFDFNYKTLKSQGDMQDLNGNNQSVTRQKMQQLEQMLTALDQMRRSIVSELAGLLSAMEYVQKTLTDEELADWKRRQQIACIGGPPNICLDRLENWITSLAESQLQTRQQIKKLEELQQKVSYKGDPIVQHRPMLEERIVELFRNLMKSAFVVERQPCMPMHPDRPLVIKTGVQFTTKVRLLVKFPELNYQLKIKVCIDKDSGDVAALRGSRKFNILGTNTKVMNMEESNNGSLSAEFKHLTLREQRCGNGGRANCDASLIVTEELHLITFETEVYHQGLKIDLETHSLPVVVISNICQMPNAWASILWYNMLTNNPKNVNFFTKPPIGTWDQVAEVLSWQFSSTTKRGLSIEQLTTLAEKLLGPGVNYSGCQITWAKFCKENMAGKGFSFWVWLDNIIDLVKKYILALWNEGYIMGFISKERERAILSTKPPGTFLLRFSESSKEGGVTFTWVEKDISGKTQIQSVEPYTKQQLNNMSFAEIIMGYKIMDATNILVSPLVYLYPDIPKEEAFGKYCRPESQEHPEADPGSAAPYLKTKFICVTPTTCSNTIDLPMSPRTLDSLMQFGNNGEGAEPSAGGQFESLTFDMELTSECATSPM

IDH1 C269 (O75874), sequence (O75874 whole entry): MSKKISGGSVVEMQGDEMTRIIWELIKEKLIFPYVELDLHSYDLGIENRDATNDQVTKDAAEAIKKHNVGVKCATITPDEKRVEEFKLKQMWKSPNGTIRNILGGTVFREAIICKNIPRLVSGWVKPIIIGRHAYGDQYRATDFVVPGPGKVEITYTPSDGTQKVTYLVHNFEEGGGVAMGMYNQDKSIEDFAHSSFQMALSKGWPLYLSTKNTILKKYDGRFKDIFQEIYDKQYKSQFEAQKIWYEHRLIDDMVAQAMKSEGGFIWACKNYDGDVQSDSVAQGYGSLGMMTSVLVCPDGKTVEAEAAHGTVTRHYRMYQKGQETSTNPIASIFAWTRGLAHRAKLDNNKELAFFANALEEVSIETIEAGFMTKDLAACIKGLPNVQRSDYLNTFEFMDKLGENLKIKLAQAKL
XPO1 C528 (O14980), sequence (O14980 whole entry, the tested form may be a part): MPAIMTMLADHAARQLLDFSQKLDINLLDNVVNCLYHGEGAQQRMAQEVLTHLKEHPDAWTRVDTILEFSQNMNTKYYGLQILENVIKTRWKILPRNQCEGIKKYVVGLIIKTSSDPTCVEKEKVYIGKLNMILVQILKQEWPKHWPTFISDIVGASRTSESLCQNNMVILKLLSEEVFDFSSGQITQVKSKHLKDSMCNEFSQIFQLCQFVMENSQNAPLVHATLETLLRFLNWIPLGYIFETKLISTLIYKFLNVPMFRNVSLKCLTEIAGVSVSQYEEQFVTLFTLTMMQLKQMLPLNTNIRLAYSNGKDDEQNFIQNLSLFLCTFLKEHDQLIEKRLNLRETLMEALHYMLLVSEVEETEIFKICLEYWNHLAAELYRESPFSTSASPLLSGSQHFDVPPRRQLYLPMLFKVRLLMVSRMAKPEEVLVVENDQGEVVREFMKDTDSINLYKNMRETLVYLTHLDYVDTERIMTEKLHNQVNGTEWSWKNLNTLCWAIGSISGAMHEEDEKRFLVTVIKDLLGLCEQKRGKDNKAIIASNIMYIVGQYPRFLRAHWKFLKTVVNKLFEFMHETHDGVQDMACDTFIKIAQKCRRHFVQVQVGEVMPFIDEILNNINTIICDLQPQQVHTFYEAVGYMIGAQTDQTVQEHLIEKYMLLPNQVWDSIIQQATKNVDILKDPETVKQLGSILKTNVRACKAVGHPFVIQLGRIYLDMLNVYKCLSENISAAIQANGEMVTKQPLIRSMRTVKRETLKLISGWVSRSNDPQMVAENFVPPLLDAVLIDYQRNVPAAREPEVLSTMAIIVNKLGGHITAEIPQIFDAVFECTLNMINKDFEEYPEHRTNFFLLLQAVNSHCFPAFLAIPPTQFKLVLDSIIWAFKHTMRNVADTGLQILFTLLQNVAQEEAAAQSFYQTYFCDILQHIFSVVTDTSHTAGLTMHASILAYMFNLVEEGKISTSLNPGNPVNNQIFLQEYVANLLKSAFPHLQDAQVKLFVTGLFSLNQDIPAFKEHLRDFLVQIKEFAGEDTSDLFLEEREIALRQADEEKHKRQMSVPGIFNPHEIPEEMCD

O=C(CCl)Nc1cccc2ncccc12 [compound 51]
isoTOP-ABPP reactivity profile ratio, Q15084_C55 (PDIA6 C55 (Q15084); in-vitro_ramos): 2.7 | isoTOP-ABPP reactivity profile ratio, Q15084_C55 (PDIA6 C55 (Q15084); in-vitro_ramos_231): 2.5 | isoTOP-ABPP reactivity profile ratio, O14980_C528 (XPO1 C528 (O14980); 500 μm, in-vitro_ramos): 0.9 | isoTOP-ABPP reactivity profile ratio, O00170_C122 (AIP C122 (O00170); 500 μm, in-vitro_ramos_231): 1.4

C=CC(=O)N(c1ccccc1)c1ccc(Br)cc1 [compound 5]
isoTOP-ABPP ratio Q15084_C55 (PDIA6 C55 (Q15084); invitro, 231): 0.9 | isoTOP-ABPP ratio Q15084_C55 (PDIA6 C55 (Q15084); invitro, ramos): 1.1 | isoTOP-ABPP ratio O14980_C528 (XPO1 C528 (O14980); invitro): 20.0 | isoTOP-ABPP ratio, O75874_C269 (IDH1 C269 (O75874); 500 μM, invitro, ramos): 0.8 | isoTOP-ABPP ratio, P48735_C308 (IDH2 C308 (P48735); 500 μM, invitro, 231): 0.8

CC1CCc2ccccc2N1C(=O)CCl (stereo not drawn) [compound 45]
isoTOP-ABPP reactivity profile ratio, O75874_C269 (IDH1 C269 (O75874); 500 μm): 20.0 | isoTOP-ABPP reactivity profile ratio, P48735_C308 (IDH2 C308 (P48735); 500 μm, in-vitro_ramos_231): 1.0

C=CC(=O)N(Cc1cccnc1)c1ccc(Oc2ccccc2)c(C(F)(F)F)c1 [compound 15]
isoTOP-ABPP ratio Q15084_C55 (PDIA6 C55 (Q15084); invitro, 231): 0.8 | isoTOP-ABPP ratio (reactivity profile), Q15084_C55 (PDIA6 C55 (Q15084); 500 μm in-vitro ramos): 1.0 | isoTOP-ABPP ratio (reactivity profile), P40763_C259 (STAT3 C259 (P40763); 500 μm in-vitro ramos): 1.9 | isoTOP-ABPP ratio O14980_C528 (XPO1 C528 (O14980); invitro): 0.8 | isoTOP-ABPP ratio (reactivity profile), O14980_C528 (XPO1 C528 (O14980); 500 μm in-vitro ramos): 1.0 | isoTOP-ABPP ratio (reactivity profile), O75874_C269 (IDH1 C269 (O75874); 500 μm in-vitro ramos): 0.6 | isoTOP-ABPP ratio (reactivity profile), O00170_C122 (AIP C122 (O00170); 500 μm in-vitro ramos): 1.4

COc1ccc2c(c1)CCCN2C(=O)CCl [compound 2]
R value (DMSO/fragment) (PDIA6 C55 (Q15084); in vitro, MDA-MB-231): 6.3 | R value (DMSO/fragment) (PDIA6 C55 (Q15084); invitro, ramos): 7.1 | R value (DMSO/fragment) (XPO1 C528 (O14980); in vitro, MDA-MB-231): 4.9 | R value (DMSO/fragment) (XPO1 C528 (O14980); invitro, ramos): 3.1 | R value (DMSO/fragment) (IDH1 C269 (O75874); 500 μM, in vitro, MDA-MB-231): 20.0 | R value (DMSO/fragment) (AIP C122 (O00170); in vitro, MDA-MB-231): 12.5 | R value (DMSO/fragment) (AIP C122 (O00170); invitro, ramos): 6.7 | R value (DMSO/fragment) (IDH2 C308 (P48735); 500 μM, in vitro, MDA-MB-231): 1.4

CCN(CC)c1ccc(S(N)(=O)=O)cc1NC(=O)CCl [compound 30]
isoTOP-ABPP ratio (reactivity profile), Q15084_C55 (PDIA6 C55 (Q15084); 500 μm in-vitro ramos): 2.2 | isoTOP-ABPP ratio (reactivity profile), O75874_C269 (IDH1 C269 (O75874); 500 μm in-vitro ramos): 0.7 | isoTOP-ABPP ratio (reactivity profile), O00170_C122 (AIP C122 (O00170); 500 μm in-vitro ramos): 1.1 | isoTOP-ABPP reactivity ratio, O00170_C122 (AIP C122 (O00170); 500 μm, in-vitro_ramos): 2.0 | isoTOP-ABPP ratio (reactivity profile), P48735_C308 (IDH2 C308 (P48735); 500 μm in-vitro ramos): 0.7

CNS(=O)(=O)C=Cc1ccc2c(ccn2Cc2ccccc2)c1 [compound 6]
isoTOP-ABPP ratio Q15084_C55 (PDIA6 C55 (Q15084); invitro, 231): 1.0 | isoTOP-ABPP ratio, P40763_C259 (STAT3 C259 (P40763); 500 μM, invitro, 231): 0.6 | isoTOP-ABPP ratio O14980_C528 (XPO1 C528 (O14980); invitro): 0.7

C=CC(=O)N1CCC(c2noc3ccc(F)cc23)CC1 [compound 37]
isoTOP-ABPP reactivity ratio, Q15084_C55 (PDIA6 C55 (Q15084); in-vitro_ramos): 1.0 | isoTOP-ABPP reactivity ratio, P40763_C259 (STAT3 C259 (P40763)): 0.9 | isoTOP-ABPP reactivity ratio, O14980_C528 (XPO1 C528 (O14980); 500 μm, in-vitro_ramos): 0.9

CC(Cl)C(=O)Nc1cc(C(F)(F)F)cc(C(F)(F)F)c1 (stereo not drawn) [compound 25]
isoTOP-ABPP ratio (reactivity profile), Q15084_C55 (PDIA6 C55 (Q15084); 500 μm in-vitro ramos_231): 1.0 | isoTOP-ABPP ratio (reactivity profile), P40763_C259 (STAT3 C259 (P40763); 500 μm in-vitro ramos_231): 0.9 | isoTOP-ABPP ratio (reactivity profile), O75874_C269 (IDH1 C269 (O75874); 500 μm in-vitro ramos_231): 1.0 | isoTOP-ABPP ratio (reactivity profile), P48735_C308 (IDH2 C308 (P48735); 500 μm in-vitro ramos_231): 14.5

N#C/C(=C\c1cc(C(F)(F)F)cc(C(F)(F)F)c1)C(N)=O [compound 23]
isoTOP-ABPP ratio (reactivity profile), Q15084_C55 (PDIA6 C55 (Q15084); 500 μm in-vitro ramos): 1.0 | isoTOP-ABPP ratio (reactivity profile), Q15084_C55 (PDIA6 C55 (Q15084); 500 μm in-vitro ramos_231): 0.8 | isoTOP-ABPP ratio (reactivity profile), P40763_C259 (STAT3 C259 (P40763); 500 μm in-vitro ramos): 0.8 | isoTOP-ABPP ratio (reactivity profile), P40763_C259 (STAT3 C259 (P40763); 500 μm in-vitro ramos_231): 1.1 | isoTOP-ABPP ratio (reactivity profile), O14980_C528 (XPO1 C528 (O14980); 500 μm in-vitro ramos): 2.9 | isoTOP-ABPP ratio (reactivity profile), O75874_C269 (IDH1 C269 (O75874); 500 μm in-vitro ramos): 1.1 | isoTOP-ABPP ratio (reactivity profile), O75874_C269 (IDH1 C269 (O75874); 500 μm in-vitro ramos_231): 0.7 | isoTOP-ABPP ratio (reactivity profile), O00170_C122 (AIP C122 (O00170); 500 μm in-vitro ramos): 1.4 | isoTOP-ABPP ratio (reactivity profile), O00170_C122 (AIP C122 (O00170); 500 μm in-vitro ramos_231): 0.7

CC(C)CCOCCNC(=O)CCl [compound 27]
isoTOP-ABPP ratio (reactivity profile), Q15084_C55 (PDIA6 C55 (Q15084); 500 μm in-vitro ramos): 1.2 | isoTOP-ABPP ratio (reactivity profile), Q15084_C55 (PDIA6 C55 (Q15084); 500 μm in-vitro ramos_231): 0.8 and 1.1 | isoTOP-ABPP ratio (reactivity profile), P40763_C259 (STAT3 C259 (P40763); 500 μm in-vitro ramos_231): 0.7 | isoTOP-ABPP ratio (reactivity profile), O14980_C528 (XPO1 C528 (O14980); 500 μm in-vitro ramos): 0.8 | isoTOP-ABPP ratio (reactivity profile), O14980_C528 (XPO1 C528 (O14980); 500 μm in-vitro ramos_231): 1.2 and 0.9 | isoTOP-ABPP ratio (reactivity profile), O00170_C122 (AIP C122 (O00170); 500 μm in-vitro ramos): 1.0 | isoTOP-ABPP ratio (reactivity profile), O00170_C122 (AIP C122 (O00170); 500 μm in-vitro ramos_231): 0.4 | isoTOP-ABPP ratio (reactivity profile), P48735_C308 (IDH2 C308 (P48735); 500 μm in-vitro ramos_231): 1.9 and 1.0

C=CC(=O)Nc1cc(C)c(Br)cc1C [compound 40]
isoTOP-ABPP reactivity ratio, Q15084_C55 (PDIA6 C55 (Q15084); in-vitro_ramos_231): 0.8 | isoTOP-ABPP reactivity ratio, P40763_C259 (STAT3 C259 (P40763)): 1.4 | isoTOP-ABPP reactivity ratio, O75874_C269 (IDH1 C269 (O75874); 500 μm, in-vitro_ramos): 0.8

O=C(CCl)Nc1ccccc1C1CCCCCC1 [compound 35]
isoTOP-ABPP reactivity ratio, Q15084_C55 (PDIA6 C55 (Q15084); in-vitro_ramos_231): 0.9 | isoTOP-ABPP reactivity ratio, P40763_C259 (STAT3 C259 (P40763)): 1.1 | isoTOP-ABPP reactivity ratio, O14980_C528 (XPO1 C528 (O14980); 500 μm, in-vitro_ramos): 0.8

O=C(CCl)NC1C(O)OC(CO)C(O)C1O (mixture of isomers) [compound 44]
isoTOP-ABPP reactivity profile ratio, Q15084_C55 (PDIA6 C55 (Q15084); in-vitro_ramos_231): 1.0 | isoTOP-ABPP reactivity profile ratio, O75874_C269 (IDH1 C269 (O75874); 500 μm): 0.8
